# From PubChem BioAssay (NCI)
#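 Each compound was tested at five concentrations against cells in 96-well plates for 48 hours. GI50 = concentration required for 50% inhibition of growth. TGI: total growth inhibition.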
# Legend:
# Experiment in all cases: DTP human tumour cell line panel, 48 h
# DLD-1 colon = tested on: DLD-1 colon
# HOP-18 NSCLC = tested on: HOP-18 NSCLC
# RXF-631 renal = tested on: RXF-631 renal
# KM20L2 colon = tested on: KM20L2 colon
# DMS 114 small cell lung = tested on: DMS 114 small cell lung
# XF 498 CNS = tested on: XF 498 CNS
# MDA-N = tested on: MDA-N
Structure (SMILES),TGI (DLD-1 colon),TGI (HOP-18 NSCLC),TGI (RXF-631 renal),TGI (KM20L2 colon),TGI (DMS 114 small cell lung),GI50 (KM20L2 colon),TGI (XF 498 CNS),TGI (MDA-N),GI50 (MDA-N),GI50 (DLD-1 colon)
O=C1c2ccccc2C2(O)Oc3cccc(O)c3C12O (stereo unspecified),> 100 µM,> 100 µM,> 100 µM,> 100 µM,> 100 µM,–,–,–,–,–
Cn1cnc([N+](=O)[O-])c1Sc1nnc(C(F)(F)F)n1C,33.5 µM,76.2 µM,39.6 µM,–,> 100 µM,–,–,–,–,–
O=C1NC(=S)NC(=O)C1=Cc1ccc2ccccc2n1,> 100 µM,> 100 µM,–,> 100 µM,> 100 µM,–,–,–,–,–
C1C[OH+]CC[OH+]CC[OH+]CC[OH+]CC[OH+]CC[OH+]1.[Cl-].[Ta+5],–,–,–,> 100 µM,–,> 100 µM,–,–,–,–
O=C(/C=C/c1ccc(Cl)cc1)c1ccncc1,> 100 µM,> 100 µM,> 100 µM,> 100 µM,> 100 µM,–,–,–,–,–
C=CCNC(=S)OCCCCCCCCCC,30.7 µM,51.8 µM,–,33.2 µM,32.1 µM,–,29.7 µM,–,–,–
CC(C)(CCC(C)(C)c1ccccc1)c1ccccc1,–,–,–,–,–,–,–,56.8 µM,–,–
COC1(OC)c2ccccc2C2(O)c3ccccc3C(=O)C12 (stereo unspecified),–,> 100 µM,–,> 100 µM,> 100 µM,–,58.8 µM,–,–,–
CC(C)(C)C(=O)OCC(COC(=O)C(C)(C)C)[N+](=O)[O-],> 100 µM,–,–,–,> 100 µM,–,> 100 µM,–,–,–
CCOC(=O)C1(C(=O)OCC)CC=C(C)CC12C(=O)Nc1ccccc12 (stereo unspecified),> 100 µM,> 100 µM,–,> 100 µM,> 100 µM,–,> 100 µM,–,–,–
COc1ccc(N2C(=O)C3c4[nH]c5ccccc5c4C4CCC(C(C)(C)C)CC4C3C2=O)cc1OC (stereo unspecified),39.9 µM,40.8 µM,–,> 100 µM,–,–,34.7 µM,–,–,–
O=C(O/N=C1/CCCC/C1=C\c1ccccc1)c1ccc(Cl)cc1,> 100 µM,> 100 µM,–,> 100 µM,–,–,48.1 µM,–,–,–
COC(=O)c1ccccc1N=Cc1ccc(N(CCC#N)S(=O)(=O)c2ccccc2)cc1,> 100 µM,> 100 µM,> 100 µM,> 100 µM,–,–,> 100 µM,–,–,–
CCc1nc(N)nc(N)c1-c1ccc(Cl)c(N=NN(C)C)c1,–,–,–,–,–,–,–,> 100 µM,–,–
COc1cc(/C=C2\CCc3ccccc3C2=O)cc(OC)c1OC,28.3 µM,26.9 µM,38.6 µM,31.1 µM,25.1 µM,–,32.1 µM,–,–,–
COc1ccc(S(=O)(=O)N/N=C(\C)CN2C(=O)c3ccccc3C2=O)cc1,> 100 µM,> 100 µM,> 100 µM,> 100 µM,> 100 µM,–,–,–,–,–
COc1cccc2c1C(=O)c1c(O)c3c(c(O)c1C2=O)C[C@@](O)(/C(C)=N\O)C[C@@H]3OC1CC(N)C(O)C(C)O1 (stereo partly specified),18.2 µM,7.26 µM,45.5 µM,30.9 µM,2.58 µM,–,0.951 µM,5.83 µM,–,–
COC(=O)C(=O)C(C#N)c1ccc(Cl)c(Cl)c1 (stereo unspecified),> 100 µM,–,> 100 µM,> 100 µM,–,–,> 100 µM,–,–,–
CS(=O)(=O)CS(=O)CS(=O)CS(=O)CC(NC(=O)CCC(N)C(=O)O)C(=O)O (stereo unspecified),–,–,–,–,–,–,–,> 100 µM,–,–
Cc1nn(C)c(=O)c2nn(-c3ccccc3)c(C)c12,> 100 µM,> 100 µM,–,> 100 µM,> 100 µM,–,–,–,–,–
N#CC(=S)Nc1ccc(F)cc1,–,–,–,–,–,–,–,> 100 µM,–,–

Structure (SMILES),TGI (DLD-1 colon),TGI (HOP-18 NSCLC),TGI (RXF-631 renal),TGI (KM20L2 colon),TGI (DMS 114 small cell lung),GI50 (KM20L2 colon),TGI (XF 498 CNS),TGI (MDA-N),GI50 (MDA-N),GI50 (DLD-1 colon)
O=C1CCC(=O)C12CCc1cccc(O)c12,> 100 µM,> 100 µM,–,> 100 µM,> 100 µM,–,> 100 µM,–,–,–
Cc1ccc([Se][Se]c2ccc(C)cc2)cc1,> 100 µM,33.5 µM,77.9 µM,> 100 µM,57 µM,–,40.8 µM,–,–,–
O=C(CC(=O)c1ccccc1NC1=Cc2ccccc2C(=O)C1=O)C(=O)NC1=C(Cl)C(=O)c2ccccc2C1=O,11.7 µM,–,31.9 µM,30.5 µM,4 µM,–,4.66 µM,3.15 µM,–,–
O=C1C=C(Nc2nc(C(=O)O)cc(=O)[nH]2)c2ccccc2C1=O,–,–,–,–,–,–,–,> 100 µM,–,–
Cc1nc2ccc(NCCN(C)C)c3c(=O)c4cc(O)ccc4n1c23,–,–,1.96 µM,–,2.14 µM,–,11.2 µM,13.7 µM,–,–
Cc1nn(C)c(=S)n(C)c1=O,> 100 µM,4.89 µM,–,> 100 µM,0.842 µM,–,5.31 µM,–,–,–
CC1(CO)C(=O)OC12CCCCC2 (stereo unspecified),> 100 µM,–,> 100 µM,–,> 100 µM,–,> 100 µM,–,–,–
CN(Cc1ccccc1)C1(N(C)Cc2ccccc2)CC1,> 100 µM,> 100 µM,–,> 100 µM,> 100 µM,–,> 100 µM,–,–,–
NC(=S)N/N=C(\C(=O)Nc1ccc(Cl)c(Cl)c1)C1=NN(c2ccccc2)C(c2cccc([N+](=O)[O-])c2)CC1=O (stereo unspecified),47.5 µM,> 100 µM,> 100 µM,46.8 µM,71.2 µM,–,> 100 µM,–,–,–
CC1=C(c2cc(C(=O)Nc3cccc(C(F)(F)F)c3)nc(NC#N)n2)Sc2ccccc2N1,> 100 µM,> 100 µM,> 100 µM,> 100 µM,> 100 µM,–,–,–,–,–
Oc1ccc(SCc2ccc(NCc3ccccc3)cc2)cc1,–,–,–,–,–,–,–,57.4 µM,–,–
COc1cc(C(CC(OC)OC)=C(C#N)C#N)cc(OC)c1OC,13.7 µM,–,–,69.4 µM,87.6 µM,–,–,–,–,–
COc1ccc(/C=C/C(C(=O)O)C(=O)O)cc1,> 100 µM,–,–,> 100 µM,> 100 µM,–,> 100 µM,–,–,–
C=C1C(=O)O[C@H]2[C@H]1CC(=O)/C(C)=C\CC[C@@]1(C)O[C@@H]21,–,–,–,–,–,–,–,7.87 mg/L,3.58 mg/L,–
CN(C)CCNC(=O)c1cccc2c1nc(-c1ccccn1)c1ccccc12,31 µM,96.8 µM,–,–,36.3 µM,–,–,–,–,–
N#Cc1nc(Nc2ccc([N+](=O)[O-])cc2)sc1N,> 100 µM,> 100 µM,> 75 µM,> 100 µM,–,–,> 100 µM,–,–,–
COP1(=S)OCC2CCC[C@@H]2O1 (stereo partly specified),–,–,–,–,–,–,–,> 100 µM,–,–
CC1=N/C(=C\c2cccc3ccccc23)C(=O)O1,> 100 µM,> 100 µM,> 100 µM,> 100 µM,> 100 µM,–,–,–,–,–
CCCCCCCCCC(=O)N[C@H]1CCc2cc(OC)c(OC)c(OC)c2-c2ccc(SC)c(=O)cc21,57.7 µM,–,–,0.0387 µM,0.0403 µM,–,0.0693 µM,–,–,11.2 µM
Cc1ccc(N(C(=O)CC(=O)N2N=C(c3ccccc3)C(N=Nc3ccc([N+](=O)[O-])cc3)C2=O)C(=O)c2ccc(Cl)cc2)cc1 (stereo unspecified),> 55.9 µM,> 85.6 µM,–,> 100 µM,> 51.1 µM,–,52.2 µM,–,–,–
